Measurements reported in the supplement of paper PMC4862054.

Columns and labels:
Settings in all cases: 72 h
[1] = tested on: MCF-10A
Outline: (§1)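 In this assay, breast cancer cell lines spent 72 h with compound at 5 concentrations in 10-fold steps over a compound-specific 10,000-fold range. The first readout was cell death by CellTox Green fluorescence, and the second was viability by CellTiter-Glo luminescence, each normalised per plate to 0.1 % DMSO and a positive kill control. EC50 came from the dose-response curves, censored at the top concentration.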

[2] = tested on: HCC1143
Outline: as §1

[3] = tested on: HDQ-P1
Outline: (§2)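 The reported EC50 was fitted from percent-inhibition dose-response curves and censored at the highest concentration. Breast cancer cell lines (20 µl suspension) were added to 384-well plates containing compound in 5 µl medium and incubated 72 h, and viability was read with 2.5 µl CellTiter-Blue over 2 h at 37 °C at 560/590 nm. Each plate was normalised to vehicle and a positive kill control and checked by Z'-factor, and rows with zero drug sensitivity score were dropped.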

[4] = tested on: MDA-MB-231
Procedure: (§3)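 Drug sensitivity and resistance testing (DSRT) of breast cancer cell lines in 384-well plates, 5 concentrations in 10-fold dilutions over a compound-specific 10,000-fold range. After 72 h, cytotoxicity was read by CellTox Green fluorescence and viability by CellTiter-Glo luminescence (multiplexed), normalised to DMSO and benzethonium chloride controls. EC50 is the inflection point of the fitted dose-response curve (bottom asymptote free, so it can be relative for partial curves) and is censored at the highest tested concentration. Rows with DSS 0 (no meaningful response) were excluded.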

[5] = tested on: BT-549
Procedure: as §3

[6] = tested on: Hs578T
Procedure: as §3

[7] = tested on: CAL-120
Procedure: as §3

[8] = tested on: MDA-MB-468
Procedure: as §3

[9] = tested on: CAL-51
Procedure: as §3

[10] = tested on: HDQ-P1; remark: listed apart in the source
Procedure: as §3

[11] = tested on: BT-474
Outline: as §2

[12] = tested on: CAL-85-1
Procedure: as §3

[13] = tested on: BT-474; remark: listed apart in the source
Procedure: as §3

[14] = tested on: CAL-148
Outline: as §1

[15] = tested on: MDA-MB-453
Procedure: as §3

[16] = tested on: MCF-10A; remark: listed apart in the source
Procedure: as §3

[17] = tested on: DU-4475
Procedure: as §3

[18] = tested on: HCC1937
Procedure: as §3

[19] = tested on: CAL-148; remark: listed apart in the source
Procedure: as §3

[20] = tested on: MFM-223
Procedure: as §3

[21] = tested on: MDA-MB-436
Procedure: as §3

[22] = tested on: HCC1143; remark: listed apart in the source
Procedure: as §3

[23] = tested on: HCC1599
Procedure: as §3

| Structure (SMILES) | EC50, CellTiter-Glo [1] [nM] | EC50, CellTiter-Glo [2] [nM] | EC50, CellTiter-Blue viability [3] [nM] | EC50, CellTox Green [4] [nM] | EC50, CellTox Green [5] [nM] | EC50, CellTox Green [6] [nM] | EC50, CellTox Green [7] [nM] | EC50, CellTox Green [8] [nM] | EC50, CellTox Green [9] [nM] | EC50, CellTox Green [10] [nM] | EC50, CellTiter-Blue viability [11] [nM] | EC50, CellTox Green [12] [nM] | EC50, CellTox Green [13] [nM] | EC50, CellTiter-Glo [14] [nM] | EC50, CellTox Green [15] [nM] | EC50, CellTox Green [16] [nM] | EC50, CellTox Green [17] [nM] | EC50, CellTox Green [18] [nM] | EC50, CellTox Green [19] [nM] | EC50, CellTox Green [20] [nM] | EC50, CellTox Green [21] [nM] | EC50, CellTox Green [22] [nM] | EC50, CellTox Green [23] [nM] |
| --- | --- | --- | --- | --- | --- | --- | --- | --- | --- | --- | --- | --- | --- | --- | --- | --- | --- | --- | --- | --- | --- | --- | --- |
| CO[C@@H]1[C@H](N(C)C(=O)c2ccccc2)C[C@H]2O[C@]1(C)n1c3ccccc3c3c4c(c5c6ccccc6n2c5c31)C(=O)NC4 [Midostaurin] | 130 | 414 | 1130 | 193 | 1060 | 997 | 510 | 384 | 29.6 | 1970 | – | – | – | – | – | – | – | – | – | – | – | – | – |
| C=CCN(/C=C1/C(=O)O[C@H](COC)[C@@]2(C)C1=C(O)C(=O)C1=C2[C@H](OC(C)=O)C[C@]2(C)C(=O)CC[C@@H]12)CC=C [PX-866] | – | – | 2170 | – | – | – | – | – | – | – | 1680 | – | – | – | – | – | – | – | – | – | – | – | – |
| CN[C@@H](C)C(=O)N[C@H]1CN(C(=O)CC(C)C)CC[C@H]2CC[C@@H](C(=O)NC(c3ccccc3)c3ccccc3)N2C1=O [AT-406] | – | – | – | 81.2 | 18.9 | – | – | – | – | 5140 | – | 75.9 | > 10000 | – | – | – | – | – | – | – | – | – | – |
| CCNC(=O)c1noc(-c2cc(C(C)C)c(O)cc2O)c1-c1ccc(CN2CCOCC2)cc1 [NVP-AUY922] | 27.6 | 38.7 | 9.72 | 9.41 | – | 247 | > 1000 | – | 74.6 | 33 | 23.4 | 84.1 | 219 | 41.4 | > 1000 | 7.61 | 25.2 | 987 | 29.5 | – | – | – | – |
| CC1(C)CCC(c2ccc(Cl)cc2)=C(CN2CCN(c3ccc(C(=O)NS(=O)(=O)c4ccc(N[C@H](CCN5CCOCC5)CSc5ccccc5)c(S(=O)(=O)C(F)(F)F)c4)cc3)CC2)C1 [Navitoclax] | – | – | 27.4 | 162 | – | – | 884 | 1740 | 906 | 289 | – | 517 | 1540 | 1000 | – | – | – | – | 306 | 2200 | – | – | – |
| O=[N+]([O-])c1ccc2c(c1)S(=O)(=O)C=C2 [Stattic] | 17400 | 13200 | – | 5150 | 1070 | 1710 | 34300 | 1130 | 1390 | 34000 | – | 1110 | 1890 | 4640 | 27400 | 1190 | – | 349 | 3870 | 1230 | 14400 | 13800 | – |
| CC(C)(C)c1nc(-c2cccc(NS(=O)(=O)c3c(F)cccc3F)c2F)c(-c2ccnc(N)n2)s1 [Dabrafenib] | – | – | – | – | – | 9.91 | – | – | – | – | – | – | – | – | – | – | 224 | – | – | – | – | – | – |
| Nc1ccn([C@@H]2O[C@H](CO)[C@@H](O)C2(F)F)c(=O)n1 [Gemcitabine] | 39.9 | 9.33 | – | – | – | – | – | 5.64 | 7.56 | – | – | 99.7 | – | 12.8 | – | – | – | – | 9.69 | – | – | – | – |
| Cn1cc(C2=C(c3cn(C4CCN(Cc5ccccn5)CC4)c4ccccc34)C(=O)NC2=O)c2ccccc21 [Enzastaurin] | – | – | 1000 | – | – | – | – | – | – | – | 1670 | – | – | – | – | – | – | – | – | – | – | – | – |
| C=CCn1c(=O)c2cnc(Nc3ccc(N4CCN(C)CC4)cc3)nc2n1-c1cccc(C(C)(C)O)n1 [MK1775] | 621 | 558 | 318 | 203 | 1430 | 2130 | 1380 | 156 | 154 | 467 | 249 | 331 | 928 | 190 | – | 1270 | – | – | 143 | 267 | 69.7 | 5090 | 54.1 |
| COc1ccc(S(=O)(=O)Nc2cccnc2Nc2ccc(O)cc2)cc1 [ABT-751] | 5770 | 644 | 245 | 497 | 190 | 1410 | > 10000 | 2.99 | 7380 | – | 552 | 194 | – | 6970 | – | 6830 | – | – | – | 5430 | 116 | – | – |
| COc1cc(Nc2c(C#N)cnc3cc(OCCCN4CCN(C)CC4)c(OC)cc23)c(Cl)cc1Cl [Bosutinib] | 442 | 1440 | 2550 | 2030 | 7580 | 576 | – | 3540 | 1550 | 5940 | 3120 | 1950 | 2830 | 7590 | 7280 | 2080 | – | 5400 | 2050 | – | 6620 | – | > 10000 |
| CC1(COc2ccc3c(c2)ncn3-c2ccc3cccc(N4CCC(N)CC4)c3n2)COC1 [Crenolanib] | 4780 | – | – | 2710 | 3000 | – | – | – | 4710 | 1040 | – | 2620 | 2390 | 4350 | – | 3370 | > 10000 | – | 2530 | – | 29.3 | – | – |
| CN(Cc1cnc2nc(N)nc(N)c2n1)c1ccc(C(=O)N[C@@H](CCC(=O)O)C(=O)O)cc1 [Methotrexate] | – | – | – | – | – | 11000 | – | – | – | – | – | > 50000 | – | – | > 50000 | – | – | – | – | – | 17900 | – | – |
| Cc1cc(Nc2nc(N[C@@H](C)c3ncc(F)cn3)ncc2Cl)[nH]n1 [AZD1480] | – | – | – | – | > 1000 | – | – | – | – | – | – | – | – | – | – | – | – | – | – | 872 | – | – | – |
| CCN(CC)CCCC(C)Nc1ccnc2cc(Cl)ccc12 (stereo unspecified) [Chloroquine] | 17300 | 43200 | – | 10400 | 24800 | 18800 | 38400 | 568 | 50800 | 34600 | – | 20800 | 4950 | 12400 | 13400 | 20400 | 96800 | 23900 | 5120 | 15300 | 5410 | – | 17900 |
| CC(=O)[C@]1(O)Cc2c(O)c3c(c(O)c2[C@@H](O[C@H]2C[C@H](N)[C@H](O)[C@H](C)O2)C1)C(=O)c1ccccc1C3=O [Idarubicin] | 455 | 531 | 277 | – | – | – | – | 82.7 | 148 | – | 116 | 198 | 53.5 | 125 | – | 642 | – | – | 31.9 | 806 | – | – | – |
| CO[C@@]12[C@H](COC(N)=O)C3=C(C(=O)C(C)=C(N)C3=O)N1C[C@@H]1N[C@@H]12 [Mitomycin C] | – | – | 8560 | – | – | > 10000 | – | 27.6 | 307 | > 10000 | 2500 | – | – | – | – | – | – | – | – | – | – | – | – |
| CC(C)n1cnc2c(NCCc3ccc(O)cc3)nc(-c3csc4ccccc34)nc21 [StemRegenin 1] | – | – | – | – | – | – | – | – | – | – | – | – | > 10000 | – | – | – | – | – | – | 2810 | – | – | – |
| O=C(CCCCCCC(=O)Nc1ccccc1)NO [Vorinostat] | 8980 | 4590 | – | 1720 | > 10000 | 948 | 6840 | 6570 | 2660 | – | 2290 | – | 6410 | 2140 | – | – | – | – | 8260 | – | – | 6130 | – |
| CNC(=O)c1ccccc1Sc1ccc2c(/C=C/c3ccccn3)n[nH]c2c1 [Axitinib] | – | – | 474 | – | – | – | – | – | 1180 | – | – | – | – | – | – | – | – | – | – | – | – | – | – |
| C/C(=C\c1csc(C)n1)[C@@H]1C[C@@H]2O[C@]2(C)CCC[C@H](C)[C@H](O)[C@@H](C)C(=O)C(C)(C)[C@@H](O)CC(=O)N1 [Ixabepilone] | – | – | – | – | 10.8 | – | – | – | 38.4 | – | 672 | 437 | – | – | – | – | – | – | – | – | – | – | – |
